Patent publication US8513462B2, “Pesticides and uses thereof” (Dow AgroSciences LLC, priority 2007, dated 2013)

System: green peach aphid (Myzus persicae)
Test: Insecticidal test for green peach aphid in foliar spray assay
Assay type: in vivo
Details: 72 h, foliar spray on cabbage, Corrected % Control (Abbott) after three days, read-out: Rating against green peach aphid on cabbage (foliar spray)
Experimental: Squash seedlings with fully expanded cotyledon leaves were trimmed to one cotyledon per plant and infested with cotton aphid (wingless adults and nymphs) 1 day prior to chemical application. Each plant was examined before chemical application to ensure uniform infestation (ca. 30-70 aphids per plant). Compounds (2 mg) were dissolved in 2 ml of acetone:methanol (1:1) solvent, forming stock solutions of 1000 ppm. The stock solutions were diluted 5× with 0.025% Tween 20 in H2O to obtain a solution at 200 ppm. A hand-held Devilbiss aspirator type sprayer was used to apply the spray solutions until runoff to both sides of the squash cotyledon leaves. Four plants (4 replications) were used for each compound. Reference plants (solvent check) were sprayed with the diluent only. Treated plants were held in a holding room for 3 days at approximately 23° C. and 40% RH before the number of live aphids on each plant was recorded. Insecticidal activity was measured by Corrected % Control using Abbott's correction formula and presented in Table 1-Activity: Corrected % Control=100*(X−Y)/X • where X=No. of live aphids on solvent check plants • Y=No. of live aphids on treated plants Results are shown in Table 7. Insecticidal Test for Green Peach Aphid (Myzus persicae) in Foliar Spray Assay Cabbage seedlings grown in 3-inch pots, with 2-3 small (3-5 cm) true leaves, were used as test substrate. The seedlings were infested with 20-50 green peach aphids (wingless adult and nymph) 1-2 days prior to chemical application. Four seedlings were used for each treatment. Compounds (2 mg) were dissolved in 2 ml of acetone:methanol (1:1) solvent, forming stock solutions of 1000 ppm. The stock solutions were diluted 5× with 0.025% Tween 20 in H2O to obtain a solution at 200 ppm. A hand-held Devilbiss aspirator sprayer was used for spraying a solution to both sides of cabbage leaves until runoff. Reference plants (solvent check) were sprayed with the diluent only. Treated plants were held in a holding room for three days at approximately 23° C. and 40% RH prior to grading. Evaluation was conducted by counting the number of live aphids per plant under a microscope. Insecticidal activity was measured by using Abbott's correction formula: Corrected % Control=100*(X−Y)/X • where X=No. of live aphids on solvent check plants • Y=No. of live aphids on treated plants

| Structure (SMILES) | pest or weed control at 200 ppm [%] |
| --- | --- |
| CC(c1ccc(C(F)(F)F)nc1)S(C)(=O)=Nc1ncc(Cc2ccccc2)s1 (racemic) [Compound 61, 5-{1-[(5-benzyl-1,3-thiazol-2-yl)(methyl)sulfonimidoyl]ethyl}-2-(trifluoromethyl)pyridine] | 80 to 100 |
| CC(c1ccc(C(F)(F)F)nc1)S(C)(=O)=Nc1nc2c(s1)CCc1nonc1-2 (racemic) [Compound 65, 7-[(methyl(oxo){1-[6-(trifluoromethyl)-3-pyridinyl]ethyl}-λ^6-sulfanylidene)amino]-4,5-dihydro[1,3]thiazolo[4,5-e][2,1,3]-benzoxadiazole] | 80 to 100 |
| CC(c1ccc(C(F)(F)F)nc1)S(C)(=O)=Nc1nnc(C(F)F)s1 (racemic) [Compound 69, 5-{1-[[5-(difluoromethyl)-1,3,4-thiadiazol-2-yl](methyl)sulfonimidoyl]ethyl}-2-(trifluoromethyl)pyridine] | 80 to 100 |
| CC(c1ccc(C(F)(F)F)nc1)S(C)(=O)=Nc1cc(F)ccn1 (centres unmarked) [Compound 3, 3-[1-ethyl(N-(2-(4-fluoro)pyridine)-sulfoximinyl)(methyl)]-6-trifluoromethylpyridine] | 80 to 100 |
| CC(c1ccc(C(F)(F)F)nc1)S(C)(=O)=Nc1ncccc1F (centres unmarked) [Compound 9] | 80 to 100 |
| CC(c1ccc(C(F)(F)F)nc1)S(C)(=O)=Nc1cccc(F)n1 (centres unmarked) [Compound 10] | < 80 |
| CC(c1ccc(C(F)(F)F)nc1)S(C)(=O)=Nc1cccc(C(F)(F)F)n1 (centres unmarked) [Compound 11] | < 80 |
| Cc1csc(N=S(C)(=O)C(C)c2ccc(C(F)(F)F)nc2)n1 (centres unmarked) [Compound 14] | < 80 |
| CC(c1ccc(C(F)(F)F)nc1)S(C)(=O)=Nc1nc(-c2ccccc2)cs1 (centres unmarked) [Compound 15] | 80 to 100 |
| CC(c1ccc(C(F)(F)F)nc1)S(C)(=O)=Nc1ncc(C#N)s1 (centres unmarked) [Compound 16] | 80 to 100 |
| CC(c1ccc(C(F)(F)F)nc1)S(C)(=O)=Nc1ccsc1[N+](=O)[O-] (centres unmarked) [Compound 17] | < 80 |
| CCOC(=O)c1csc(N=S(C)(=O)C(C)c2ccc(C(F)(F)F)nc2)n1 (centres unmarked) [Compound 18] | 80 to 100 |
| Cc1ccc(-c2csc(N=S(C)(=O)C(C)c3ccc(C(F)(F)F)nc3)n2)cc1 (centres unmarked) [Compound 19, 5-{1-[methyl(4-(4-methylphenyl)-1,3-thiazol-2-yl)sulfonimidoyl]ethyl}-2-(trifluoromethyl)pyridine] | 80 to 100 |
| CC(c1ccc(C(F)(F)F)nc1)S(C)(=O)=Nc1nc(-c2ccc(Cl)c(Cl)c2)cs1 (centres unmarked) [Compound 20] | 80 to 100 |
| CC(c1ccc(C(F)(F)F)nc1)S(C)(=O)=Nc1nc(-c2cccc(Cl)c2)cs1 (centres unmarked) [Compound 21] | 80 to 100 |
| CC(c1ccc(C(F)(F)F)nc1)S(C)(=O)=Nc1nc(-c2ccc(Cl)cc2)cs1 (centres unmarked) [Compound 22] | 80 to 100 |
| COc1ccc(-c2csc(N=S(C)(=O)C(C)c3ccc(C(F)(F)F)nc3)n2)cc1 (centres unmarked) [Compound 23] | 80 to 100 |
| CC(c1ccc(C(F)(F)F)nc1)S(C)(=O)=Nc1nc2ccccc2s1 (centres unmarked) [Compound 25, 3-[1-ethyl(N-(2-benzothiazole)-sulfoximinyl)(methyl)]-6-trifluoromethylpyridine] | < 80 |
| CC(c1ccc(C(F)(F)F)nc1)S(C)(=O)=Nc1nc(C(F)(F)F)cs1 (centres unmarked) [Compound 26, 3-[1-ethyl(N-(2-(4-trifluoromethyl)thiazole)-sulfoximinyl)(methyl)]-6-trifluoromethylpyridine] | 80 to 100 |
| CC(c1ccc(C(F)(F)F)nc1)S(C)(=O)=Nc1nc(-c2ccc(F)cc2)cs1 (centres unmarked) [Compound 27, 5-{1-[methyl(4-(4-fluorophenyl)-1,3-thiazol-2-yl)sulfonimidoyl]ethyl}-2-(trifluoromethyl)pyridine] | 80 to 100 |
| CCc1csc(N=S(C)(=O)C(C)c2ccc(C(F)(F)F)nc2)n1 (centres unmarked) [Compound 28] | 80 to 100 |
| CC(c1ccc(C(F)(F)F)nc1)S(C)(=O)=Nc1nc(C(C)(C)C)cs1 (centres unmarked) [Compound 29] | 80 to 100 |
| CC(c1ccc(C(F)(F)F)nc1)S(C)(=O)=Nc1nc(C(F)(F)C(F)(F)F)cs1 (centres unmarked) [Compound 30] | 80 to 100 |

| Structure (SMILES) | pest or weed control at 200 ppm [%] |
| --- | --- |
| CCOC(C)(C)c1csc(N=S(C)(=O)C(C)c2ccc(C(F)(F)F)nc2)n1 (centres unmarked) [Compound 31] | 80 to 100 |
| CC(c1ccc(C(F)(F)F)nc1)S(C)(=O)=Nc1nc(-c2ccncc2)cs1 (centres unmarked) [Compound 34] | 80 to 100 |
| Cc1ccsc1-c1nc(N=S(C)(=O)C(C)c2ccc(C(F)(F)F)nc2)sc1C (centres unmarked) [Compound 36] | 80 to 100 |
| CC(c1ccc(C(F)(F)F)nc1)S(C)(=O)=Nc1nc(-c2csc3ccccc23)cs1 (centres unmarked) [Compound 40] | 80 to 100 |
| CC(c1ccc(C(F)(F)F)nc1)S(C)(=O)=Nc1nc(-c2cc(-c3ccc(Cl)cc3)no2)cs1 (centres unmarked) [Compound 42] | 80 to 100 |
| CC(c1ccc(C(F)(F)F)nc1)S(C)(=O)=Nc1nc(-c2ccc3c(c2)OCO3)cs1 (centres unmarked) [Compound 47] | 80 to 100 |
| CC(c1ccc(C(F)(F)F)nc1)S(C)(=O)=Nc1nc(-c2ccc([N+](=O)[O-])cc2)cs1 (centres unmarked) [Compound 49] | 80 to 100 |
| Cc1cc(-c2csc(N=S(C)(=O)C(C)c3ccc(C(F)(F)F)nc3)n2)ccc1Cl (centres unmarked) [Compound 50] | 80 to 100 |
| COc1ccc(-c2csc(N=S(C)(=O)C(C)c3ccc(C(F)(F)F)nc3)n2)c(OC)c1 (centres unmarked) [Compound 53] | 80 to 100 |
| COc1ccc(-c2csc(N=S(C)(=O)Cc3ccc(Cl)nc3)n2)cc1 (centres unmarked) [Compound 57, 5-{[methyl[4-(4-methoxyphenyl)-1,3-thiazol-2-yl]sulfonimidoyl]methyl}-2-chloropyridine] | < 80 |
| CCCCC(c1ccc(C(F)(F)F)nc1)S(C)(=O)=Nc1nc(-c2ccc(OC)cc2)cs1 (centres unmarked) [Compound 60, 5-{1-[methyl(4-(4-methoxyphenyl)-1,3-thiazol-2-yl)sulfonimidoyl]pentyl}-2-(trifluoromethyl)pyridine] | < 80 |
| CC(c1ccc(C(F)(F)F)nc1)S(C)(=O)=Nc1ncc(-c2ccccc2)s1 (centres unmarked) [Compound 62, 5-{1-[methyl(5-phenyl-1,3-thiazol-2-yl)sulfonimidoyl]ethyl}-2-(trifluoromethyl)pyridine] | 80 to 100 |
| Cc1cnc(N=S(C)(=O)C(C)c2ccc(C(F)(F)F)nc2)s1 (centres unmarked) [Compound 63, 5-{1-[methyl(5-methyl-1,3-thiazol-2-yl)sulfonimidoyl]ethyl}-2-(trifluoromethyl)pyridine] | 80 to 100 |
| CSCc1cnc(N=S(C)(=O)C(C)c2ccc(C(F)(F)F)nc2)s1 (centres unmarked) [Compound 64, 5-[1-(methyl{5-[(methylsulfanyl)methyl]-1,3-thiazol-2-yl}sulfonimidoyl)ethyl]-2-(trifluoromethyl)pyridine] | 80 to 100 |
| Cc1sc(N=S(C)(=O)C(C)c2ccc(C(F)(F)F)nc2)nc1-c1ccccc1 (centres unmarked) [Compound 66, 5-{1-[methyl(5-methyl-4-phenyl-1,3-thiazol-2-yl)sulfonimidoyl]ethyl}-2-(trifluoromethyl)pyridine] | 80 to 100 |
| Cc1nc(N=S(C)(=O)C(C)c2ccc(C(F)(F)F)nc2)sc1C (centres unmarked) [Compound 67, 5-{1-[(4,5-dimethyl-1,3-thiazol-2-yl)(methyl)sulfonimidoyl]ethyl}-2-(trifluoromethyl)pyridine] | 80 to 100 |
| Cc1sc(N=S(C)(=O)C(C)c2ccc(C(F)(F)F)nc2)nc1-c1ccc(Br)cc1 (centres unmarked) [Compound 68, 5-{1-[[4-(4-bromophenyl)-5-methyl-1,3-thiazol-2-yl](methyl)sulfonimidoyl]ethyl}-2-(trifluoromethyl)pyridine] | 80 to 100 |
| CCc1coc(N=S(C)(=O)C(C)c2ccc(C(F)(F)F)nc2)n1 (centres unmarked) [Compound 70, 5-{1-[methyl(4-ethyl-1,3-oxazol-2-yl)sulfonimidoyl]ethyl}-2-(trifluoromethyl)pyridine] | 80 to 100 |
| Cc1coc(N=S(C)(=O)C(C)c2ccc(C(F)(F)F)nc2)n1 (centres unmarked) [Compound 71] | 80 to 100 |
| Cc1nc(N=S(C)(=O)C(C)c2ccc(C(F)(F)F)nc2)oc1C (centres unmarked) [Compound 72] | < 80 |
| Cc1oc(N=S(C)(=O)C(C)c2ccc(C(F)(F)F)nc2)nc1-c1ccc(Br)cc1 (centres unmarked) [Compound 73] | 80 to 100 |
| CC(c1ccc(C(F)(F)F)nc1)S(C)(=O)=Nc1nc(-c2ccccc2)co1 (centres unmarked) [Compound 74] | < 80 |
| O=S1(=Nc2nc(C(F)(F)F)cs2)CCCC1c1ccc(Cl)nc1 (centres unmarked) [Compound 79] | 80 to 100 |

System: not given
Test: not given
Details: not given

| Structure (SMILES) | melting point [°C] |
| --- | --- |
| CC(c1ccc(C(F)(F)F)nc1)S(C)(=O)=Nc1nc(-c2ccccc2)cs1 (centres unmarked) [Compound 15] | 88 to 93 |
| CC(c1ccc(C(F)(F)F)nc1)S(C)(=O)=Nc1nc(-c2ccc(F)cc2)cs1 (centres unmarked) [Compound 27, 5-{1-[methyl(4-(4-fluorophenyl)-1,3-thiazol-2-yl)sulfonimidoyl]ethyl}-2-(trifluoromethyl)pyridine] | 89 to 94 |
| CC(c1ccc(C(F)(F)F)nc1)S(C)(=O)=Nc1nc(C(C)(C)C)cs1 (centres unmarked) [Compound 29] | 144 to 148 |
| CC(c1ccc(C(F)(F)F)nc1)S(C)(=O)=Nc1nc(C(F)(F)C(F)(F)F)cs1 (centres unmarked) [Compound 30] | 95 to 100 |
